Results published in US5723616A, “Process for the preparation of a growth hormone secretagogue” (priority 1996, dated 1998).
Converted amounts (≈) assume the structure as drawn. Like-named read-outs stand apart in the source and are kept apart here.

Columns and labels:
[1] = solubility of the sulfonamide in various mixtures of toluene and n-PrOH, determined by HPLC assay; assay type: physicochemical; settings: organic solvent or mixture, read-out: solubility of 1
Procedure: The temperature of both the head and pot rose from 94° C. to 98° C. during the solvent switch. Toluene and n-PrOH form an azeotrope boiling at 97.2° C. composed of 47.5% toluene and 52.5% n-PrOH. The mixture was allowed to cool gradually to 20° C. over 3h and aged for 12 h. […] The solubility of the sulfonamide in various mixtures of toluene and n-PrOH has been determined by HPLC assay: […]

[2] = hygroscopicity observed at filtration of the wet crystals; assay type: physicochemical; settings: wet crystals during filtration (N2 essential)
Procedure: The volume of the solution of 15 from the previous step was adjusted to 60 L with ethyl acetate and EtOH (4.8 L) was added. The MsOH (316 mL) was added in 3 L of EtOAc at 45° C. To the deep red homogeneous solution was added 496 g of the title compound Form I seed (10% seed based on the weight of the free amine was employed). The temperature rose to ca. 48° C. and the reaction was aged at 52° C. for 1.5 hours. Analysis indicated complete conversion to the title compound (Form I). (At less than 10% seed longer age (>3 hours) was required). The slurry was allowed to cool to 20° C. overnight and was filtered in a centrifuge under N2. The cake was washed with 20 L of 8% EtOH in EtOAc. […] The batch was dried at 35° C. under vacuum to afford 2.7 Kg (56% overall yield) of the title compound (Form I) (99.9 A % purity; <0.1% enantiomer).

Row | solubility ([1]; 5% toluene in n-proh) | solubility ([1]; 10% toluene in n-proh) | solubility ([1]; 20% toluene in n-proh) | solubility ([1]; 25% toluene in n-proh) | solubility ([1]; 0% toluene in n-PrOH) | hygroscopicity of the wet crystals [2] | SMILES
1 | 3020 µg/mL (≈ 7.54 mM) | 4230 µg/mL (≈ 10.6 mM) | 7510 µg/mL (≈ 18.8 mM) | 10300 µg/mL (≈ 25.7 mM) | 2360 µg/mL (≈ 5.89 mM) |  | CS(=O)(=O)N1CC2(CCN(C(=O)OCc3ccccc3)CC2)c2ccccc21 [Compound 1, CBZ-Spiroindoline-methanesulfonamide]
2 |  |  |  |  |  | very hygroscopic | CC(C)(N)C(=O)N[C@H](COCc1ccccc1)C(=O)N1CCC2(CC1)CN(S(C)(=O)=O)c1ccccc12 [Form I, N-[1(R)-[(1,2-dihydro-1-methanesulfonyl-spiro[3H-indole-3,4'-piperdin]-1'-yl)carbonyl]-2-(phenylmethyl-oxy)ethyl]-2-amino-2-methylpropanamide methanesulfonate]
